US20240124412A1, “IKAROS ZINC FINGER FAMILY DEGRADERS AND USES THEREOF” (Gilead Sciences, Inc., priority 2021, published 2024)

Columns and labels:
[1] = molecular target: T1, IKZF1 (Homo sapiens, UniProt Q13422+Q96SW2); test: HiBiT protein tagging assay, in vitro IKZF1 degradation (HEK293); assay type: cell-based; details: HEK293, 18-24 hr incubation, normalized to DMSO control; for Dmax: read-out: IKZF1 Dmax (maximum degradation at the highest concentration tested); for DC50: read-out: IKZF1 EC50
T1 construct: expressed in transfected cells
T1 sequence (Q13422 whole entry): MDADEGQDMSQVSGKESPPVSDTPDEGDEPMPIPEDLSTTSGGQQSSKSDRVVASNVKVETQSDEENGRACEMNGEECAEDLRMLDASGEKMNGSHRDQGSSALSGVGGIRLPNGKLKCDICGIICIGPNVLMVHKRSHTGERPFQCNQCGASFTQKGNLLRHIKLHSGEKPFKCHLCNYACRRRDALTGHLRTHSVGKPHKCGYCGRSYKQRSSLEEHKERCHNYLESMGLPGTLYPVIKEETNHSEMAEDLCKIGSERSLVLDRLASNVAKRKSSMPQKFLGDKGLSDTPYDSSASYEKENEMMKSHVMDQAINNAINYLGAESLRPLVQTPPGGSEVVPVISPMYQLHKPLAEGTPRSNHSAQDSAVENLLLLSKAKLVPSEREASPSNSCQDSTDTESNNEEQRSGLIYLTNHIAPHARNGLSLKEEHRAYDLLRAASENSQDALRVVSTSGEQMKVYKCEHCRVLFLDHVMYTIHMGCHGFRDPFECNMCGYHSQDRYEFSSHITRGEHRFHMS
T1 sequence (Q96SW2 whole entry): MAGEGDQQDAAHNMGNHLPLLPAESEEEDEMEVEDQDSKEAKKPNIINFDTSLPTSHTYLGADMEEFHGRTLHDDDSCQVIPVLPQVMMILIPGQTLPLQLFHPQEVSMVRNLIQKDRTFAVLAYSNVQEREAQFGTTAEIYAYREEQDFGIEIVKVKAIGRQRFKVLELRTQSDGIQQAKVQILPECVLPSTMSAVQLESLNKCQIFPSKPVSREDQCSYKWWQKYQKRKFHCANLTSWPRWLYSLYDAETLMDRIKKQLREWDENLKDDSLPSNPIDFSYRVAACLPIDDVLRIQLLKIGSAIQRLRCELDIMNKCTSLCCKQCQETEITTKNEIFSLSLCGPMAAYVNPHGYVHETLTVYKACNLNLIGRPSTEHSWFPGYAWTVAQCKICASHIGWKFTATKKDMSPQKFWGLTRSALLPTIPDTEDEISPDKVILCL
T1 sequence (Q16531 whole entry partner): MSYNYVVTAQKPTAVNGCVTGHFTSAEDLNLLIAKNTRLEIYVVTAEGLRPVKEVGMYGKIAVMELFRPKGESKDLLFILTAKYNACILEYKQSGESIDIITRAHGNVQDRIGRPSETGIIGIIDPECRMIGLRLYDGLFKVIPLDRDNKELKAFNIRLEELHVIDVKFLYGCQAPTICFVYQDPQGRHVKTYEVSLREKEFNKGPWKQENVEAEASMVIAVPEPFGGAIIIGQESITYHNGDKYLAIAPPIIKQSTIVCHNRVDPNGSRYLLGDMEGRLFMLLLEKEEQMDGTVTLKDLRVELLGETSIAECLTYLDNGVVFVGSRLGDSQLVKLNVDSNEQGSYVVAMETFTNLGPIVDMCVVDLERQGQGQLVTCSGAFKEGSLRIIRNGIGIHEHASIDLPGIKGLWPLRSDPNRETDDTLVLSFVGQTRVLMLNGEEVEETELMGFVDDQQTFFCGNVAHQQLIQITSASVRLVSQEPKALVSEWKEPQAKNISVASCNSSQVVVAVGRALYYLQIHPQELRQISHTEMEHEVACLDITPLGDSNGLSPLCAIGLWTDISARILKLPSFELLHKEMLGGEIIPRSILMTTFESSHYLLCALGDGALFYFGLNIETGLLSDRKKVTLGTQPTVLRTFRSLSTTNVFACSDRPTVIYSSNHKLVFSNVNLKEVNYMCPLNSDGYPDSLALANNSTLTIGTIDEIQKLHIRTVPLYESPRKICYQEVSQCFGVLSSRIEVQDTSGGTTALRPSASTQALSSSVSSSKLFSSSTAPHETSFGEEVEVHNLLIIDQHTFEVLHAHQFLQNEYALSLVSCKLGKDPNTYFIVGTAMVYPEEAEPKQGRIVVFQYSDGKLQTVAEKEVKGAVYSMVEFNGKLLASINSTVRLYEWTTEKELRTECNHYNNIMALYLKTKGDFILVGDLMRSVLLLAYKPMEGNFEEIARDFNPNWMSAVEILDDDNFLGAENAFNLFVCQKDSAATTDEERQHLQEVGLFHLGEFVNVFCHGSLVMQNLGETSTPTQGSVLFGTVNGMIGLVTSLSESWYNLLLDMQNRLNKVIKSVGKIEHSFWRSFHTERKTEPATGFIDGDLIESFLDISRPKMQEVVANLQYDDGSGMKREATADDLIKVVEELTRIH
Description: (§1) In vitro degradation of IKZF1 and IKZF2 was measured using HiBiT protein tagging and detection technology (Promega).
(§2) HiBiT technology (Promega) was used to develop the quantitative assays to measure the cellular IKZFs level by tagging an 11 amino acid HiBit peptides VSGWRLFKKIS (SEQ ID NO:1) to the protein of interest. Reporter plasmids were generated by fusing a linker sequence (GSSGGSSG; SEQ ID NO:2) followed by the HiBiT tag at the C terminus of IKZF1 and IKZF2. The fusion fragments were subsequently cloned into pcDNA5 pcDNA™5/FRT/TO plasmids (Thermo Fisher, cat #V652020) downstream of the Tetracycline operator. The resulting plasmids were co-transfected with pOG44 Flp-Recombinase Expression Vector (Thermo Fisher, cat #V600520) into Flp-In™ T-REx HEK293 line (Thermo Fisher, cat #R78077) and a stable cell pool was selected by adding 100 μg/ml of Hygromycin (Thermo Fisher, cat #10687010). The reporter cell enabled Tet-On inducible reporter expression from a single copy of the integrated gene.
(§3) On Day 1, Cells were grown to ˜80% confluency in TC medium (DMEM Glutamax (Gibco10569), 10% Tet free FBS (Takara 631106), and PenStrep Glutamin (Gibco 10378)) in tissue culture flasks. Doxycycline was then added to a final concentration of 1 μg/ml to induce reporter expression at 37° C. overnight.
(§4) On Day 2, 125 nL of serially-diluted solution of testing compounds were dispensed into 384-well white solid assay plates via ECHO acoustic liquid handler. Cells were lifted by 0.25% Trypsin (Gibco 25200) then pelleted by centrifugation (Beckman Avanti J-E) at 500×g for 5 min. Cell pellets were resuspended in TC medium at the concentration of 3e5/mL and 25 μL of cell suspension were added into each well of compound-spotted plates. The plates were returned to a 37° C. incubator overnight (18-24 hr).
(§5) On Day 3, assay plates were removed from the TC incubator and 25 μL of Nano-Glo lytic detection system (Promega, cat #N3030) was added to each well. Plates were incubated at r.t. for 3 min with shaking, and luminescence was read using an Envision reader (Perkin Elmer).
(§6) All raw data was normalized to DMSO control (final concentration: 0.5%) wells as POC and plotted out for EC50 and Dmax (Maximum degradation at the highest concentration tested in the assay).

[2] = molecular target: T2, IKZF2 (Homo sapiens, UniProt Q96SW2+Q9UKS7); test: HiBiT protein tagging assay, in vitro IKZF2 degradation (HEK293); assay type: cell-based; details: HEK293, 18-24 hr incubation, normalized to DMSO control; for Dmax: HEK293, HiBiT assay, read-out: IKZF2 Dmax (maximum degradation at the highest concentration tested); for DC50: HiBiT assay, read-out: IKZF2 EC50
T2 construct: expressed in transfected cells
T2 sequence (Q9UKS7 1-500 isoform Q9UKS7-2): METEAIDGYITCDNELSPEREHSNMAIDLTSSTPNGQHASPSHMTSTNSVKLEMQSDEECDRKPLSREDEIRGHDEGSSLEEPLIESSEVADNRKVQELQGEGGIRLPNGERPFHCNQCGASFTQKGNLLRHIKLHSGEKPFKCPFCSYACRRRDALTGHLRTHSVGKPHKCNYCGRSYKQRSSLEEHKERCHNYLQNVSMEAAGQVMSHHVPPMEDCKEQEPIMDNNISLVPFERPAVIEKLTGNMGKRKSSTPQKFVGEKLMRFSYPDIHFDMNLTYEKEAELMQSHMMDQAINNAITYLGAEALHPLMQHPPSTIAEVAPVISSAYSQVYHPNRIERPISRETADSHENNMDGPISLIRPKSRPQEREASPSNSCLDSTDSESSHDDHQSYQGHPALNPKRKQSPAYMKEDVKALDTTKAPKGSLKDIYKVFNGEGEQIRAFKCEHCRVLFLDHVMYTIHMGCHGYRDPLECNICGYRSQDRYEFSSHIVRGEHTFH
T2 sequence (Q96SW2 whole entry): as the sequence (Q96SW2 whole entry) above
T2 sequence (Q16531 whole entry partner): as the sequence (Q16531 whole entry partner) above
Description: as §1, §2, §3, §4, §5, §6

| Structure (SMILES) | Dmax [1] [%] | DC50 [1] [nM] | Dmax [2] [%] | DC50 [2] [nM] |
| --- | --- | --- | --- | --- |
| O=C1CCC(N2Cc3cc(CN[C@H]4CCC[C@H](Cc5ccccc5)C4)ccc3C2=O)C(=O)N1 (relative stereo) [Example 11, 3-(5-((((1,3-trans)-3-benzylcyclohexyl)amino)methyl)-1-oxoisoindolin-2-yl)piperidine-2,6-dione] | 67 | 25 | 68 | 81 |
| O=C1CCC(N2Cc3cc(CN[C@H]4CCC[C@@H](Cc5ccccc5)C4)ccc3C2=O)C(=O)N1 (relative stereo) [Example 12, 3-(5-((((1,3-cis)-3-benzylcyclohexyl)amino)methyl)-1-oxoisoindolin-2-yl)piperidine-2,6-dione] | 95 | 3 | 96 | 10 |
| O=C1CCC(N2Cc3cc(CN[C@@H]4CCCC[C@@H]4O)ccc3C2=O)C(=O)N1 (relative stereo) [Example 49, 3-(5-(((cis-2-Hydroxycyclohexyl)amino)methyl)-1-oxoisoindolin-2-yl)piperidine-2,6-dione] | 38 | 153 | 70 | 449 |
| O=C1CCC(N2Cc3cc(CNC4CCN(Cc5ccccc5)CC4)ccc3C2=O)C(=O)N1 (centres unmarked) [Example 1, 3-(5-(((1-benzylpiperidin-4-yl)amino)methyl)-1-oxoisoindolin-2-yl)piperidine-2,6-dione] | 51 | 255 | 67 | 342 |
| O=C1CCC(N2Cc3cc(CNC4CCN(c5ccccc5)CC4)ccc3C2=O)C(=O)N1 (centres unmarked) [Example 2, 3-(1-oxo-5-(((1-phenylpiperidin-4-yl)amino)methyl)isoindolin-2-yl)piperidine-2,6-dione] | 80 | 19 | 83 | 58 |
| O=C1CCC(N2Cc3cc(CNC4CCN(C(=O)OCc5ccccc5)CC4)ccc3C2=O)C(=O)N1 (centres unmarked) [Example 3, benzyl 4-(((2-(2,6-dioxopiperidin-3-yl)-1-oxoisoindolin-5-yl)methyl)amino)piperidine-1-carboxylate] | 95 | 7 | 94 | 39 |
| O=C1CCC(N2Cc3cc(CNC4CCN(C(=O)NCc5ccccc5)CC4)ccc3C2=O)C(=O)N1 (centres unmarked) [Example 4, N-benzyl-4-(((2-(2,6-dioxopiperidin-3-yl)-1-oxoisoindolin-5-yl)methyl)amino)piperidine-1-carboxamide] | 95 | 68 | 95 | 1700 |
| O=C1CCC(N2Cc3cc(CNC4CCCCC4)ccc3C2=O)C(=O)N1 (centres unmarked) [Example 5, 3-(5-((Cyclohexylamino)methyl)-1-oxoisoindolin-2-yl)piperidine-2,6-dione] | 38 | 123 | 78 | 118 |
| O=C1CCC(N2Cc3cc(CNC4CCOCC4)ccc3C2=O)C(=O)N1 (centres unmarked) [Example 6, 3-(1-oxo-5-(((tetrahydro-2H-pyran-4-yl)amino)methyl)isoindolin-2-yl)piperidine-2,6-dione] | 92 | 148 | 78 | 181 |
| O=C1CCC(N2Cc3cc(CNC4CCC(F)(F)CC4)ccc3C2=O)C(=O)N1 (centres unmarked) [Example 7, 3-(5-(((4,4-difluorocyclohexyl)amino)methyl)-1-oxoisoindolin-2-yl)piperidine-2,6-dione] | 70 | 53 | 80 | 104 |
| O=C1CCC(N2Cc3cc(CNC4CCCC4)ccc3C2=O)C(=O)N1 (centres unmarked) [Example 8] | 26 | 131 | 55 | 143 |
| CC(C)NCc1ccc2c(c1)CN(C1CCC(=O)NC1=O)C2=O (centres unmarked) [Example 9, 3-(5-((isopropylamino)methyl)-1-oxoisoindolin-2-yl)piperidine-2,6-dione] | 51 | 351 | 48 | 738 |
| O=C1CCC(N2Cc3cc(CNC4CCC(Cc5ccccc5)CC4)ccc3C2=O)C(=O)N1 (centres unmarked) [Example 10, 3-(5-(((4-benzylcyclohexyl)amino)methyl)-1-oxoisoindolin-2-yl)piperidine-2,6-dione] | 51 | 121 | 80 | 117 |
| O=C1CCC(N2Cc3cc(CN[C@H]4CCc5ccccc5C4)ccc3C2=O)C(=O)N1 (stereo partly drawn) [Example 13, 3-(1-oxo-5-((((S)-1,2,3,4-tetrahydronaphthalen-2-yl)amino)methyl)isoindolin-2-yl)piperidine-2,6-dione] | 48 | 31 | 73 | 23 |
| O=C1CCC(N2Cc3cc(CN[C@@H]4CCc5ccccc5C4)ccc3C2=O)C(=O)N1 (stereo partly drawn) [Example 14, 3-(1-oxo-5-((((R)-1,2,3,4-tetrahydronaphthalen-2-yl)amino)methyl)isoindolin-2-yl)piperidine-2,6-dione] | 35 | 23 | 43 | 48 |
| O=C1CCC(N2Cc3cc(CNC45CC(C4)C5)ccc3C2=O)C(=O)N1 (centres unmarked) [Example 15, 3-(5-((bicyclo[1.1.1]pentan-1-ylamino)methyl)-1-oxoisoindolin-2-yl)piperidine-2,6-dione] |  | > 10000 | 29 | 1800 |
| C[C@@H](NCc1ccc2c(c1)CN(C1CCC(=O)NC1=O)C2=O)c1ccccc1 (stereo partly drawn) [Example 16, 3-(1-oxo-5-((((R)-1-phenylethyl)amino)methyl)isoindolin-2-yl)piperidine-2,6-dione] | 71 | 41 | 54 | 260 |
| O=C1CCC(N2Cc3cc(CN[C@H]4CCOc5ccccc54)ccc3C2=O)C(=O)N1 (stereo partly drawn) [Example 17, 3-(5-((((S)-chroman-4-yl)amino)methyl)-1-oxoisoindolin-2-yl)piperidine-2,6-dione] | 65 | 31 | 48 | 230 |
| CN(Cc1ccc2c(c1)CN(C1CCC(=O)NC1=O)C2=O)C1CCN(Cc2ccccc2)CC1 (centres unmarked) [Example 18, 3-(5-(((1-benzylpiperidin-4-yl)(methyl)amino)methyl)-1-oxoisoindolin-2-yl)piperidine-2,6-dione] |  | > 10000 | 21 | 328 |
| O=C1CCC(N2Cc3cc(CN[C@H]4CCN(Cc5ccccc5)C4)ccc3C2=O)C(=O)N1 (stereo partly drawn) [Example 19, 3-(5-((((S)-1-benzylpyrrolidin-3-yl)amino)methyl)-1-oxoisoindolin-2-yl)piperidine-2,6-dione] | 46 | 122 | 52 | 442 |
| O=C1CCC(N2Cc3cc(CN[C@@H]4CCCN(Cc5ccccc5)C4)ccc3C2=O)C(=O)N1 (stereo partly drawn) [Example 20, 3-(5-((((R)-1-benzylpiperidin-3-yl)amino)methyl)-1-oxoisoindolin-2-yl)piperidine-2,6-dione] | 95 | 7 | 97 | 32 |
| O=C1CCC(N2Cc3cc(CN[C@H]4CCCN(Cc5ccccc5)C4)ccc3C2=O)C(=O)N1 (stereo partly drawn) [Example 21, 3-(5-((((S)-1-benzylpiperidin-3-yl)amino)methyl)-1-oxoisoindolin-2-yl)piperidine-2,6-dione] | 79 | 56 | 72 | 261 |
